Among the data in patent publication EP0938471B1, “THE PREPARATION AND USE OF ORTHO-SULFONAMIDO ARYL HYDROXAMIC ACIDS AS MATRIX METALLOPROTEINASE AND TACE INHIBITORS” (priority 1996, dated 1998) are IC50 and inhibition values, retold here.

Holding throughout (type): biochemical
For one assay, the target named is T1, MMP-1 (Homo sapiens, UniProt P03956).
T1 sequence (P03956 100-469): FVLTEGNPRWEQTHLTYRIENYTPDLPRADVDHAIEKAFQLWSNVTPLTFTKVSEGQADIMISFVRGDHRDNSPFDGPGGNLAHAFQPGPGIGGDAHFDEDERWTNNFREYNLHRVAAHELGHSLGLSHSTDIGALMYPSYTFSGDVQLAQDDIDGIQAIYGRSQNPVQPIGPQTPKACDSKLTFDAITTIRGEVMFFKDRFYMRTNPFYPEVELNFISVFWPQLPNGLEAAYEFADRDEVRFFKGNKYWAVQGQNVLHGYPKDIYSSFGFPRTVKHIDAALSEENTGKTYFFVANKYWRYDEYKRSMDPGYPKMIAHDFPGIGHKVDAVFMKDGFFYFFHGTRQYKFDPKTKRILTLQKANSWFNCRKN
The assay is described as follows: MMP-1 inhibition (thiopeptide or fluorescent peptide substrate assay). Conditions: for pIC50: read-out: MMP-1 IC50.

The target in the next assay is MMP-9 (Homo sapiens, UniProt P14780). Kind of assay: MMP-9 inhibition (thiopeptide or fluorescent peptide substrate assay). Conditions: read-out: MMP-9 IC50.
MMP-9, sequence (P14780 94-707): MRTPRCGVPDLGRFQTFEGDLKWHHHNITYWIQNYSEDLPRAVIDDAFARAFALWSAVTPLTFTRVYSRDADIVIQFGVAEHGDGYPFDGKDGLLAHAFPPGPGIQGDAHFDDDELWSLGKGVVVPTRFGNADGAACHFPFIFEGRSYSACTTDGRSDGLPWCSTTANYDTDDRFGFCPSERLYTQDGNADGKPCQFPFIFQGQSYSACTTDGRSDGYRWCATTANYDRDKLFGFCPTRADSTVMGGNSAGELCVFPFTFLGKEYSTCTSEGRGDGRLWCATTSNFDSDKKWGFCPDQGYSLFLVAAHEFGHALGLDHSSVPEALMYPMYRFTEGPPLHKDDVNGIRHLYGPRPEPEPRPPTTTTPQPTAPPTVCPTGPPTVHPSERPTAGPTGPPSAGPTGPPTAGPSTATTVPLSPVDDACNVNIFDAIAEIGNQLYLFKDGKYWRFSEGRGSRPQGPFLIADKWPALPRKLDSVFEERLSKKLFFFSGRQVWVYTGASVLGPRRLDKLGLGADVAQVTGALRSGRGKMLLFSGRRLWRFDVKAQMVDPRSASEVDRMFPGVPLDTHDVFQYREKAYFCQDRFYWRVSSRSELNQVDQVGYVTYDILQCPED
For a further assay, the target named is MMP-13 (Homo sapiens, UniProt P45452). Kind of assay: MMP-13 inhibition (thiopeptide or fluorescent peptide substrate assay).
The target in another assay is TACE (Homo sapiens, UniProt P78536). Kind of assay: TACE inhibition (fluorescent peptidyl substrate).
TACE, sequence (P78536 215-824): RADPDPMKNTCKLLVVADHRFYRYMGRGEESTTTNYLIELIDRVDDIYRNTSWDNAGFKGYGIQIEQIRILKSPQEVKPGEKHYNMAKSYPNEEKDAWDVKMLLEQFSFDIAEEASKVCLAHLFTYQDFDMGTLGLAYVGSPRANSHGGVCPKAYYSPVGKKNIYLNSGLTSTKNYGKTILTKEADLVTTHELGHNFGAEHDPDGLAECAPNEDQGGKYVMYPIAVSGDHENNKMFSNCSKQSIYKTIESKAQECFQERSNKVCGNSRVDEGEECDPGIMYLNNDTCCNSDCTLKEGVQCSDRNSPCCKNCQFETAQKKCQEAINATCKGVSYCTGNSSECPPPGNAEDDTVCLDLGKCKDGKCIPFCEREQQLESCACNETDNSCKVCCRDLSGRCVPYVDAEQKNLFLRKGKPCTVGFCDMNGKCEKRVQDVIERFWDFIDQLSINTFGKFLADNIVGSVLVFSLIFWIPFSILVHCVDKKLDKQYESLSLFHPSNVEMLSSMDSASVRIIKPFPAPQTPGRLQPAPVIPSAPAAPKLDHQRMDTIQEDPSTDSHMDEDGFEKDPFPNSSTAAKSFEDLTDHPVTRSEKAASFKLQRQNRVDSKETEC

pIC50: −log10 of the molar value. Where two headings read alike, the source gives them in different places. A value given as a limit tells only on which side of the number the result lay.

Description for MMP-9: The enzyme activity is measured by the rate of the color increase. The thiopeptide substrate is made up fresh as a 20 mM stock in 100% DMSO and the DTNB is dissolved in 100% DMSO as a 100 mM stock and stored in the dark at room temperature. Both the substrate and DTNB are diluted together to 1 mM with substrate buffer (50 mM HEPES pH 7.5, 5 mM CaCl2) before use. […] Alternatively, a fluorescent peptide substrate is used. In this assay, the peptide substrate contains a fluorescent group and a quenching group. Upon cleavage of the substrate by an MMP, the fluorescence that is generated is quantitated on the fluorescence plate reader. […] The substrate is dissolved in methanol and stored frozen in 1 mM aliquots. For the assay, substrate and enzymes are diluted in HCBC buffer to the desired concentrations. Compounds are added to the 96 well plate containing enzyme and the reaction is started by the addition of substrate. […] For either the thiopeptide or fluorescent peptide assays, the slope of the line is calculated and represents the reaction rate. […] The mean (x±sem) of the control rate is calculated and compared for statistical significance (p<0.05) with drug-treated rates using Dunnett's multiple comparison test.
Description for TACE: Using 96-well black microtiter plates, each well receives a solution composed of 10 µL TACE (Immunex, final concentration 1µg/mL), 70µL Tris buffer, pH 7.4 containing 10% glycerol (final concentration 10 mM), and 10 µL of test compound solution in DMSO (final concentration 1µM, DMSO concentration <1%) and incubated for 10 minutes at room temperature.
The reaction is read (excitation 340 nm, emission 420 nm) for 10 min. and the increase in fluorescence over time is plotted as a linear line. The slope of the line is calculated and represents the reaction rate.
The linearity of the reaction rate is confirmed (r^2 >0.85). The mean (x±sem) of the control rate is calculated and compared for statistical significance (p<0.05) with drug-treated rates using Dunnett's multiple comparison test.

Consider `COc1ccc(S(=O)(=O)N(Cc2ccccc2)c2cc(C)ccc2C(=O)NO)cc1` [Example 26, 2-[Benzyl-(4-methoxy-benzenesulfonyl)-amino]-N-hydroxy-4-methyl-benzamide], for which the pIC50 (in general, −log10 of the IC50, conventionally taken in molar units) on MMP-1 was 6.05; on MMP-9 it was 6.46; on MMP-13 (read-out: MMP-13 IC50), 6.01; on TACE (read-out: TACE IC50) it was below 6.00.
Taken in the same sequence, the figures for `COc1ccc(S(=O)(=O)N(Cc2ccccc2)c2cccc(C)c2C(=O)NO)cc1` [Example 27, 2-[Benzyl-(4-methoxy-benzenesulfonyl)-amino]-N-hydroxy-6-methyl-benzamide] were 5.80, 6.36, 6.14 and below 6.00.
As to `COc1ccc(S(=O)(=O)N(Cc2ccccc2)c2ccc(C)cc2C(=O)NO)cc1` [Example 29, 2-[Benzyl-(4-methoxy-benzenesulfonyl)-amino]-N-hydroxy-5-methyl-benzamide], the pIC50 on MMP-1 was 6.26; at MMP-9, 6.45; on MMP-13 (read-out: MMP-13 IC50), 6.14; on TACE (read-out: TACE IC50), 6.00.
Taken in the same sequence, the figures for `COc1ccc(S(=O)(=O)N(Cc2ccccc2)c2c(OCC(F)(F)F)cccc2C(=O)NO)cc1` [Example 55, 2-[Benzyl-(4-methoxy-benzenesulfonyl)-amino]-N-hydroxy-3-(2,2,2-trifluoroethoxy)-benzamide] were 6.17, 7.54, 6.67 and below 6.00.
Taken in the same sequence, the figures for `COCCOCOc1cccc(C(=O)NO)c1N(Cc1ccccc1)S(=O)(=O)c1ccc(OC)cc1` [Example 56, 2-[Benzyl-(4-methoxy-benzenesulfonyl)-amino]-N-hydroxy-3-(2-methoxy-ethoxymethoxy)-benzamide] were below 6.00, 7.24, 6.86 and below 6.00.
Taken in the same sequence, the figures for `COc1ccc(S(=O)(=O)N(Cc2ccccc2)c2c(OCc3ccc(C(=O)NO)cc3)cccc2C(=O)NO)cc1` [Example 57, 2-[Benzyl-(4-methoxy-benzenesulfonyl)-amino]-3-[4-(hydroxyaminocarbonyl)-benzyloxy]-N-hydroxy-benzamide] were below 6.30, 7.92, 7.48 and 6.00.
Take `COc1ccc(S(=O)(=O)N(Cc2ccccc2)c2c(OCCCC(=O)NO)cccc2C(=O)NO)cc1` [Example 58, 2-[Benzyl-(4-methoxy-benzenesulfonyl)-amino]-N-hydroxy-3-(3-hydroxycarbamoyl-propoxy)-benzamide]: the pIC50 at MMP-1 is 6.61; at MMP-9 it was 8.30; on MMP-13 (read-out: MMP-13 IC50) it was 7.44; at TACE (read-out: TACE IC50), 6.17.
In the case of `COc1ccc(S(=O)(=O)N(Cc2ccccc2)c2c(OCCCCC(=O)NO)cccc2C(=O)NO)cc1` [Example 59, 2-[Benzyl-(4-methoxy-benzenesulfonyl)-amino]-N-hydroxy-3-(4-hydroxycarbamoyl-butoxy)-benzamide], the pIC50 at MMP-1 is 6.62; at MMP-9, 8.10; at MMP-13 (read-out: MMP-13 IC50), 7.47; at TACE (read-out: TACE IC50), below 6.00.
For the molecule `COc1ccc(S(=O)(=O)N(Cc2ccccc2)c2c(OC(C)C)cccc2C(=O)NO)cc1` [Example 60, 2-[Benzyl-(4-methoxy-benzenesulfonyl)-amino]-N-hydroxy-3-isopropoxy-benzamide], the pIC50 was 6.82 at MMP-1, 8.15 at MMP-9, 7.82 on MMP-13 (read-out: MMP-13 IC50) and 6.63 on TACE (read-out: TACE IC50).
Consider `COc1ccc(S(=O)(=O)N(Cc2ccccc2)c2c(C)cc(C)cc2C(=O)NO)cc1` [Example 68, 2-[Benzyl-(4-methoxy-benzenesulfonyl)-amino]-N-hydroxy-3,5-dimethyl-benzamide], for which the pIC50 at MMP-1 is 7.09; at MMP-9, 7.68; on MMP-13 (read-out: MMP-13 IC50) it was 7.82; at TACE (read-out: TACE IC50), 6.62.
Taken in the same sequence, the figures for `Cc1cc(C)c(N(Cc2ccccc2)S(=O)(=O)c2ccc(F)cc2)c(C(=O)NO)c1` [Example 69, 2-[Benzyl-(4-fluoro-benzenesulfonyl)-amino]-N-hydroxy-3,5-dimethyl-benzamide] were 6.82, 6.06, 5.86 and below 6.00.
Consider `CCCCOc1ccc(S(=O)(=O)N(Cc2ccccc2)c2c(C)cc(C)cc2C(=O)NO)cc1` [Example 72, 2-[Benzyl-(4-butoxy-benzenesulfonyl)-amino]-N-hydroxy-3,5-dimethyl-benzamide], for which the pIC50 is below 6.00 on MMP-1, 6.84 on MMP-9, 6.86 at MMP-13 (read-out: MMP-13 IC50) and 6.42 on TACE (read-out: TACE IC50).
For `Cc1cc(C)c(N(Cc2ccccc2)S(=O)(=O)c2ccc(OCc3ccccc3)cc2)c(C(=O)NO)c1` [Example 74, 2-[Benzyl-(4-benzyloxy-benzenesulfonyl)-amino]-N-hydroxy-3,5-dimethyl-benzamide], the pIC50 on MMP-1 is below 6.00; on MMP-9 it was 6.26; on MMP-13 (read-out: MMP-13 IC50), 6.02; against TACE, 6.37.
Regarding `C#Cc1cc(C)c(N(Cc2ccccc2)S(=O)(=O)c2ccc(OC)cc2)c(C(=O)NO)c1` [Example 80, 2-[Benzyl-(4-methoxy-benzenesulfonyl)-amino]-5-ethynyl-N-hydroxy-3-methyl-benzamide], the pIC50 at MMP-1 was 6.96; at MMP-9, 7.68; at MMP-13 (read-out: MMP-13 IC50) it was 7.74; at TACE (read-out: TACE IC50), 6.87.
Taken in the same sequence, the figures for `COc1ccc(S(=O)(=O)N(Cc2cccnc2)c2c(C)cc(C)cc2C(=O)NO)cc1` [Example 88, N-Hydroxy-2-[(4-methoxy-benzenesulfonyl)-pyridin-3-ylmethyl-amino]-3,5-dimethyl-benzamide] were 6.88, 7.82, 7.96 and 7.30.
On to `COc1ccc(S(=O)(=O)N(Cc2ccccc2)c2cc3ccccc3cc2C(=O)NO)cc1` [Example 94, 3-[Benzyl-(4-methoxy-benzenesulfonyl)-amino]-naphthalene-2-carboxylic acid hydroxyamide], for which the pIC50 at MMP-1 was 6.00; at MMP-9, 6.56; at MMP-13 (read-out: MMP-13 IC50), 6.68; on TACE (read-out: TACE IC50), below 6.00.
As for `COc1ccc(S(=O)(=O)N(Cc2cccc(OC)c2)c2c(C)cc(C)cc2C(=O)NO)cc1` [Example 115, N-Hydroxy-2-[(4-methoxy-benzenesulfonyl)-(3-methoxy-benzyl)-amino]-3,5-dimethyl-benzamide], the pIC50 at MMP-1 was below 6.00; on MMP-9, 7.96; on MMP-13 (read-out: MMP-13 IC50), 7.70; at TACE (read-out: TACE IC50), 6.76.
Taken in the same sequence, the figures for `COc1ccc(S(=O)(=O)N(Cc2c(F)c(F)c(OC)c(F)c2F)c2c(C)cc(C)cc2C(=O)NO)cc1` [Example 116, N-Hydroxy-2-[(4-methoxy-benzenesulfonyl)-(2,3,5,6-tetrafluoro-4-methoxy-benzyl)-amino]-3,5-dimethyl-benzamide] were 6.70, 7.89, 7.85 and 6.57.
As to `COc1ccc(S(=O)(=O)N(Cc2ccccc2Br)c2c(C)cc(C)cc2C(=O)NO)cc1` [Example 118, 2-[(2-Bromo-benzyl)-(4-methoxy-benzenesulfonyl)-amino]-N-hydroxy-3,5-dimethyl-benzamide], the negative logarithm of the IC50 (pIC50) on MMP-1 was 6.61; at MMP-9, 6.46; at MMP-13 (read-out: MMP-13 IC50) it was 6.64; on TACE (read-out: TACE IC50) it was below 6.00.
`COc1ccc(S(=O)(=O)N(Cc2cccc(Br)c2)c2c(C)cc(C)cc2C(=O)NO)cc1` [Example 119, 2-[(3-Bromo-benzyl)-(4-methoxy-benzenesulfonyl)-amino]-N-hydroxy-3,5-dimethyl-benzamide]: the pIC50 on MMP-1 is 6.65; at MMP-9, 7.57; at MMP-13 (read-out: MMP-13 IC50) it was 7.85; on TACE (read-out: TACE IC50), 6.60.
Taken in the same sequence, the figures for `COc1ccc(S(=O)(=O)N(Cc2ccc(Br)cc2)c2c(C)cc(C)cc2C(=O)NO)cc1` [Example 120, 2-[(4-Bromo-benzyl)-(4-methoxy-benzenesulfonyl)-amino]-N-hydroxy-3,5-dimethyl-benzamide] were 6.62, 7.74, 7.41 and 6.51.
Take `COc1ccc(S(=O)(=O)N(C)c2c(C)cc(C)cc2C(=O)NO)cc1` [Example 130, N-Hydroxy-2-[(4-methoxy-benzenesulfonyl)-methyl-amino]-3,5-dimethyl-benzamide]: the pIC50 at MMP-1 was 6.67; on MMP-9 it was 8.40; at MMP-13 (read-out: MMP-13 IC50) it was 7.89; on TACE (read-out: TACE IC50) it was 7.12.
Taken in the same sequence, the figures for `CCN(c1c(C)cc(C)cc1C(=O)NO)S(=O)(=O)c1ccc(OC)cc1` [Example 131, 2-[Ethyl-(4-methoxy-benzenesulfonyl)-amino]-N-hydroxy-3,5-dimethyl-benzamide] were 6.67, 7.27, 7.32 and 7.10.
On to `COc1ccc(S(=O)(=O)N(Cc2ccccc2)c2c(C(=O)NO)cccc2N(C)C)cc1` [Example 390, 2-[Benzyl-(4-methoxy-benzenesulfonyl)-amino]-3-dimethylamino-N-hydroxy-benzamide], for which the inhibition (as a rule, the share of the control response that was lost under treatment) at 1 µM stood at 19% at MMP-1 (read-out: MMP-1 % inhibition, footnote: 1µM) and 39% at TACE (at 1µM concentration). The same molecule showed a pIC50 at MMP-13 of 6.27.
